Key:
Echinochloa crus-galli [1] = assay: Herbicidal effect test in submerged condition by treatment during weed-growth stage (1); assay type: in vivo; conditions: 0.64 g/a, treated at 1st to 2nd leaf stage, 3 weeks after treatment
Protocol: (§1) Herbicidal Effect Test in Submerged Condition by Treatment During Weed-Growth Stage (1) After alluvial soil was placed in a styrol cup of 1/30000 are, water was poured therein and mixed, and adjusted to a submerged condition of water depth 4 cm. After seeds of Echinochloa crus-galli, Scirpus juncoides and Monochoria vaginalis were sown in the cup, the plants were grown by putting the cup in a green house at 25 to 30° C. When Echinochloa crus-galli, Scirpus juncoides and Monochoria vaginalis reached 1st to 2nd leaf stage, the wettable powder of the present invention prepared according to Formulation Example 1 was diluted with water so as to give a predetermined formulation amount, and the surface of the water was treated with the diluted wettable powder. The herbicidal effect for each plant was investigated 3 weeks after treatment with the herbicide according to the criteria indicated in Test Example 1.

Monochoria vaginalis = assay: as above; assay type: in vivo; conditions: 0.64 g/a, treated at 1st to 2nd leaf stage, 3 weeks after treatment
Protocol: as §1

Scirpus juncoides = assay: as above; assay type: in vivo; conditions: 0.64 g/a, treated at 1st to 2nd leaf stage, 3 weeks after treatment
Protocol: as §1

Abutilon avicennae = assay: Herbicidal effect test by soil treatment; assay type: in vivo; conditions: 1.6 g/a, 3 weeks after treatment
From the text: (§2) Herbicidal Effect Test by Soil Treatment
(§3) Sterilized diluvial soil was placed in a plastic box having a size of length 21 cm, width 13 cm and depth 7 cm, seeds Echinochloa crus-galli, Digitaria adscendes, Setaria viridis, Avena fatua, Black-grass, Abutilon avicennae, Ambrosia elatior, Amaranthus retroflexus, Chenopodium album, Polygonum blumei, Stellaria media, Zea mays (corn), Glycine max (soybean), Oryza sativa (rice), Triticum aestivum (wheat) and Beta vulgaris (beat) were sown interspatially, covered with about 1.5 cm of soil, and then the wettable powder of the present invention prepared according to Formulation Example 1 was diluted with water so as to give a predetermined formulation amount, and the surface of the soil was uniformly treated with the diluted wettable powder by use of a small-sized spray. The herbicidal effect for each plant was investigated 3 weeks after treatment with the herbicide according to the criteria indicated in Test Example 1.

Amaranthus retroflexus = assay: Herbicidal effect test by soil treatment; assay type: in vivo; conditions: 1.6 g/a, 3 weeks after treatment
From the text: as §2, §3

Ambrosia elatior = assay: Herbicidal effect test by soil treatment; assay type: in vivo; conditions: 1.6 g/a, 3 weeks after treatment
From the text: as §2, §3

Avena fatua = assay: Herbicidal effect test by soil treatment; assay type: in vivo; conditions: 1.6 g/a, 3 weeks after treatment
From the text: as §2, §3

Beta vulgaris (beet) = assay: Herbicidal effect test by soil treatment; assay type: in vivo; conditions: 1.6 g/a, 3 weeks after treatment
From the text: as §2, §3

Black-grass = assay: Herbicidal effect test by soil treatment; assay type: in vivo; conditions: 1.6 g/a, 3 weeks after treatment
From the text: as §2, §3

Chenopodium album = assay: Herbicidal effect test by soil treatment; assay type: in vivo; conditions: 1.6 g/a, 3 weeks after treatment
From the text: as §2, §3

Digitaria adscendes = assay: Herbicidal effect test by soil treatment; assay type: in vivo; conditions: 1.6 g/a, 3 weeks after treatment
From the text: as §2, §3

Echinochloa crus-galli [2] = assay: Herbicidal effect test by soil treatment; assay type: in vivo; conditions: 1.6 g/a, 3 weeks after treatment
From the text: as §2, §3

Polygonum blumei = assay: Herbicidal effect test by soil treatment; assay type: in vivo; conditions: 1.6 g/a, 3 weeks after treatment
From the text: as §2, §3

Setaria viridis = assay: Herbicidal effect test by soil treatment; assay type: in vivo; conditions: 1.6 g/a, 3 weeks after treatment
From the text: as §2, §3

Stellaria media = assay: Herbicidal effect test by soil treatment; assay type: in vivo; conditions: 1.6 g/a, 3 weeks after treatment
From the text: as §2, §3

[3] = tested on: Triticum aestivum (wheat); assay: Herbicidal effect test by soil treatment; assay type: in vivo; conditions: 1.6 g/a, 3 weeks after treatment
From the text: as §2, §3

corn (Zea mays) = assay: Herbicidal effect test by soil treatment; assay type: in vivo; conditions: 1.6 g/a, 3 weeks after treatment
From the text: as §2, §3

soybean (Glycine max) = assay: Herbicidal effect test by soil treatment; assay type: in vivo; conditions: 1.6 g/a, 3 weeks after treatment
From the text: as §2, §3

direct sown rice = assay: Herbicidal effect test by soil treatment; assay type: in vivo, Oryza sativa; conditions: 1.6 g/a, 3 weeks after treatment
From the text: as §2, §3

With `COc1cc(OC)nc(NC(=O)NS(=O)(=O)c2c(C3=NOC(C)CO3)c(C)nn2C)n1` (stereo not shown) [Compound 9, N-((4,6-dimethoxypyrimidin-2-yl)aminocarbonyl)-1,3-dimethyl-4-(6-methyl-5H,6H-1,4,2-dioxadin-3-yl)pyrazole-5-sulfonamide] the “herbicidal effect, A: Echinochloa crus-galli” value (Echinochloa crus-galli [1]) was 5 (Herbicidal rate 90% or more (almost complete death)), the “herbicidal effect, C: Monochoria vaginalis” value (Monochoria vaginalis) was 5 (Herbicidal rate 90% or more (almost complete death)) and the “herbicidal effect, B: Scirpus juncoides” value (Scirpus juncoides) was 5 (Herbicidal rate 90% or more (almost complete death)). For the same molecule, the “herbicidal effect, H: Abutilon avicennae” value (Abutilon avicennae) was 4 (Herbicidal rate 70% or more and less than 90%), the “herbicidal effect, J: Amaranthus retroflexus” value (Amaranthus retroflexus) was 5 (Herbicidal rate 90% or more (almost complete death)) and the “herbicidal effect, I: Ambrosia elatior” value (Ambrosia elatior) was 5 (Herbicidal rate 90% or more (almost complete death)). The “herbicidal effect, F: Avena fatua” value (Avena fatua) was 3 (Herbicidal rate 40% or more and less than 70%), the “herbicidal effect, f: Beta vulgaris (beet)” value (Beta vulgaris (beet)) was 5 (Herbicidal rate 90% or more (almost complete death)) and the “herbicidal effect, G: Black-grass” value (Black-grass) was 5 (Herbicidal rate 90% or more (almost complete death)). The “herbicidal effect, K: Chenopodium album” value (Chenopodium album) was 5 (Herbicidal rate 90% or more (almost complete death)), the “herbicidal effect, D: Digitaria adscendes” value (Digitaria adscendes) was 4 (Herbicidal rate 70% or more and less than 90%) and the “herbicidal effect, A: Echinochloa crus-galli” value (Echinochloa crus-galli [2]) was 4 (Herbicidal rate 70% or more and less than 90%). For the same molecule, the “herbicidal effect, L: Polygonum blumei” value (Polygonum blumei) was 5 (Herbicidal rate 90% or more (almost complete death)), the “herbicidal effect, E: Setaria viridis” value (Setaria viridis) was 4 (Herbicidal rate 70% or more and less than 90%) and the “herbicidal effect, M: Stellaria media” value (Stellaria media) was 5 (Herbicidal rate 90% or more (almost complete death)). The “herbicidal effect, e: Triticum aestivum (wheat)” value [3] was 5 (Herbicidal rate 90% or more (almost complete death)), the “herbicidal effect, b: corn (Zea mays)” value (corn (Zea mays)) was 5 (Herbicidal rate 90% or more (almost complete death)) and the “herbicidal effect, c: soybean (Glycine max)” value (soybean (Glycine max)) was 5 (Herbicidal rate 90% or more (almost complete death)). The “herbicidal effect, d: direct sown rice” value (direct sown rice) was 5 (Herbicidal rate 90% or more (almost complete death)).

Source: patent US7709636B2, “Pyrazole sulfonylurea compound and herbicide” (Nissan Chemical Industries, Ltd., priority 2004, dated 2010)
